Experiment: Single dose study: plasma pharmacokinetics of eplerenone, open lactone ring form, spironolactone
Conditions: for Plasma Concentration Of Eplerenone: -0.25 h (predose); for Oral Clearance: eplerenone in plasma; for concentration at 12 h / AUC(0-t) / Cmax / MRT / Tmax / concentration at 0.5 h / concentration at 1 h / concentration at 2 h / concentration at 3 h / concentration at 4 h / concentration at 6 h / concentration at 8 h / concentration at 16 h / concentration at 24 h / concentration at 28 h / concentration at 32 h / concentration at 48 h / concentration at 72 h / concentration at 96 h / half-life: male, human, po
Method: The pharmacokinetics, safety and antialdosterone activity of single 10, 50, 100, 300 and 1000 mg oral doses of eplerenone were evaluated in a single-center, randomized, double-blind, placebo-controlled study.
The study employed seven parallel dose groups of eight healthy male humans.
The eplerenone capsules administered corresponded to the capsules (or combinations of the capsules) disclosed in Examples 4, 5, 7 and 8 above. The placebo was a conventional capsule containing lactose. […] The fludrocortisone used in the study consisted of commercially available fludrocortisone tablets (Florinef®, Squibb BV).
The subjects, who underwent a ten hour food fast prior to administration of the dose, received a single oral dose of one of the study medications together with about 180 mL of water at 0800 hours. […] Each dose of fludrocortisone was administered with 150 mL of water except for the 1.0 mg dose which was administered with 200 mL of water.
The plasma samples collected from subjects dosed with eplerenone were assayed for concentrations of eplerenone and the open lactone ring form of eplerenone. […] A subset of plasma samples was also assayed for testosterone levels. The urine collected was analyzed to determine concentrations and amounts of eplerenone and the open lactone ring form of eplerenone, the amount of sodium and potassium excreted, and the urinary log10 (sodium/potassium) ratio.

Q: What does the source list for `COC(=O)C1CC2=CC(=O)CCC2(C)C23OC2CC2(C)C(CC[C@@]24CCC(=O)O4)C13` (stereo partly drawn) [eplerenone, methyl hydrogen 9,11α-epoxy-17α-hydroxy-3-oxopregn-4-ene-7α,21-dicarboxylate, γ-lactone]?
A: Plasma Concentration Of Eplerenone (10 mg single oral dose): 0 ng/mL; Plasma Concentration Of Eplerenone (50 mg single oral dose): 0 ng/mL; Plasma Concentration Of Eplerenone (100 mg single oral dose): 0 ng/mL; Plasma Concentration Of Eplerenone (300 mg single oral dose): 0 ng/mL; Plasma Concentration Of Eplerenone (1000 mg single oral dose): 0 ng/mL; Oral Clearance (10 mg single oral dose): 13.3 L/h; Oral Clearance (50 mg single oral dose): 13.7 L/h; Oral Clearance (100 mg single oral dose): 13.1 L/h; Oral Clearance (300 mg single oral dose): 17.6 L/h; Oral Clearance (1000 mg single oral dose): 18.4 L/h; concentration at 12 h (in vivo, 50 mg): 49.4 ng/mL; AUC(0-t) (plasma, 10 mg): 942 ng·h/mL; Cmax (plasma, 10 mg): 191 ng/mL; MRT (plasma, 10 mg): 3.9 h; Tmax (plasma, 10 mg): 1.3 h; concentration at 0.5 h (plasma, 10 mg): 130 ng/mL; concentration at 1 h (plasma, 10 mg): 177 ng/mL; concentration at 2 h (plasma, 10 mg): 159 ng/mL; concentration at 3 h (plasma, 10 mg): 125 ng/mL; concentration at 4 h (plasma, 10 mg): 106 ng/mL; concentration at 6 h (plasma, 10 mg): 65.3 ng/mL; concentration at 8 h (plasma, 10 mg): 34.4 ng/mL; concentration at 12 h (plasma, 10 mg): 6 ng/mL; concentration at 16 h (plasma, 10 mg): 6 ng/mL; concentration at 24 h (plasma, 10 mg): 1.7 ng/mL; concentration at 28 h (plasma, 10 mg): 0 ng/mL; concentration at 32 h (plasma, 10 mg): 0 ng/mL; concentration at 48 h (plasma, 10 mg): 0 ng/mL; concentration at 72 h (plasma, 10 mg): 0 ng/mL; concentration at 96 h (plasma, 10 mg): 0 ng/mL; half-life (plasma, 10 mg): 2.1 h; AUC(0-t) (plasma, 50 mg): 4020 ng·h/mL; Cmax (plasma, 50 mg): 797 ng/mL; MRT (plasma, 50 mg): 4.2 h; Tmax (plasma, 50 mg): 1.4 h; concentration at 0.5 h (plasma, 50 mg): 552 ng/mL; concentration at 1 h (plasma, 50 mg): 721 ng/mL; concentration at 2 h (plasma, 50 mg): 693 ng/mL; concentration at 3 h (plasma, 50 mg): 592 ng/mL; concentration at 4 h (plasma, 50 mg): 457 ng/mL; concentration at 6 h (plasma, 50 mg): 270 ng/mL; concentration at 8 h (plasma, 50 mg): 146 ng/mL; concentration at 16 h (plasma, 50 mg): 18.3 ng/mL; concentration at 24 h (plasma, 50 mg): 3 ng/mL; concentration at 28 h (plasma, 50 mg): 1.8 ng/mL; concentration at 32 h (plasma, 50 mg): 0 ng/mL; concentration at 48 h (plasma, 50 mg): 0 ng/mL; concentration at 72 h (plasma, 50 mg): 0 ng/mL; concentration at 96 h (plasma, 50 mg): 0 ng/mL; half-life (plasma, 50 mg): 2.9 h; AUC(0-t) (plasma, 100 mg): 7940 ng·h/mL; Cmax (plasma, 100 mg): 1500 ng/mL; MRT (plasma, 100 mg): 4.9 h; Tmax (plasma, 100 mg): 1.5 h; concentration at 0.5 h (plasma, 100 mg): 758 ng/mL; concentration at 1 h (plasma, 100 mg): 1220 ng/mL; concentration at 2 h (plasma, 100 mg): 1360 ng/mL; concentration at 3 h (plasma, 100 mg): 1110 ng/mL; concentration at 4 h (plasma, 100 mg): 900 ng/mL; concentration at 6 h (plasma, 100 mg): 558 ng/mL; concentration at 8 h (plasma, 100 mg): 275 ng/mL; concentration at 12 h (plasma, 100 mg): 124 ng/mL; concentration at 16 h (plasma, 100 mg): 41.9 ng/mL; concentration at 24 h (plasma, 100 mg): 13.1 ng/mL; concentration at 28 h (plasma, 100 mg): 6.1 ng/mL; concentration at 32 h (plasma, 100 mg): 3 ng/mL; concentration at 48 h (plasma, 100 mg): 0 ng/mL; concentration at 72 h (plasma, 100 mg): 0 ng/mL; concentration at 96 h (plasma, 100 mg): 0 ng/mL; half-life (plasma, 100 mg): 4.9 h; AUC(0-t) (plasma, 300 mg): 18500 ng·h/mL; Cmax (plasma, 300 mg): 2970 ng/mL; MRT (plasma, 300 mg): 5.5 h; Tmax (plasma, 300 mg): 1.5 h; concentration at 0.5 h (plasma, 300 mg): 1620 ng/mL; concentration at 1 h (plasma, 300 mg): 2680 ng/mL; concentration at 2 h (plasma, 300 mg): 2780 ng/mL; concentration at 3 h (plasma, 300 mg): 2220 ng/mL; concentration at 4 h (plasma, 300 mg): 1950 ng/mL; concentration at 6 h (plasma, 300 mg): 1270 ng/mL; concentration at 8 h (plasma, 300 mg): 843 ng/mL; concentration at 12 h (plasma, 300 mg): 333 ng/mL; concentration at 16 h (plasma, 300 mg): 142 ng/mL; concentration at 24 h (plasma, 300 mg): 38.3 ng/mL; concentration at 28 h (plasma, 300 mg): 21.1 ng/mL; concentration at 32 h (plasma, 300 mg): 11.3 ng/mL

Reference: US6410054B1, “Immediate release eplerenone compositions” (G. D. Searle & Co., priority 1998, dated 2002)
